Experimental findings from PubChem BioAssay (NCI) are described below.

Test systems include SK-MEL-5 melanoma; EKVX NSCLC; IGROV1 ovarian; UACC-62 melanoma; T-47D breast; SR leukemia; MDA-N; SK-OV-3 ovarian; RXF 393 renal; HOP-62 NSCLC.
Common to all, as to assay: inhibition of tumour cell growth, NCI panel, 48 h

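Protocol summary: plate cells (96-well), add compound at 5 concentrations, incubate 48 h, interpolate endpoints linearly. TGI is the concentration that stops growth completely.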

Take `CC(=O)Nc1ccc(NC(=O)CC(=O)Nc2ccc(NC(C)=O)cc2)cc1`: the TGI in the assay with SK-MEL-5 melanoma is above 100 µM; with EKVX NSCLC, above 100 µM; with IGROV1 ovarian, above 100 µM; in the assay with UACC-62 melanoma, 23.4 µM; in the assay with T-47D breast, above 100 µM; in the assay on SR leukemia, above 100 µM. Also, the results for the TGI in the assay with MDA-N and in the assay on SK-OV-3 ovarian were above 100 µM and 65.9 µM, respectively.
In the case of `Cc1ccc(S(=O)(=O)NC(=O)Nc2c(S(N)(=O)=O)cc(S(N)(=O)=O)c(Cl)c2Cl)cc1`, the TGI in the assay with SK-MEL-5 melanoma, in the assay on EKVX NSCLC, in the assay on IGROV1 ovarian, in the assay on UACC-62 melanoma, with SR leukemia and in the assay on MDA-N was above 100 µM each time. The molecule further had a TGI in the assay on SK-OV-3 ovarian above 100 µM.
As to `c1ccc(-c2csc3c2-n2cccc2C3N2CCCC2)cc1` (stereo not drawn), the TGI in the assay on SK-MEL-5 melanoma is 22.6 µM; in the assay with RXF 393 renal, above 100 µM; in the assay on EKVX NSCLC, above 100 µM; in the assay with IGROV1 ovarian it was above 100 µM; with SR leukemia it was above 100 µM; in the assay on MDA-N, above 100 µM. Moreover, in the assay with HOP-62 NSCLC, the TGI was above 100 µM.
Take `O=[N+]([O-])c1ccc(CSc2nn(Cc3ccc([N+](=O)[O-])cc3)cc3ncnc2-3)cc1`: the TGI with SK-MEL-5 melanoma is above 100 µM; with EKVX NSCLC it was above 100 µM; with IGROV1 ovarian it was 52.1 µM; with UACC-62 melanoma, 40.7 µM; with T-47D breast, above 100 µM; with MDA-N, above 100 µM. For the same molecule, the TGI with SK-OV-3 ovarian and in the assay on HOP-62 NSCLC was above 100 µM in each case.
Turning to `CCO/C(O)=C(/C(=N)N1CCOCC1)C(=O)Nc1cccc(C(F)(F)F)c1`, the TGI in the assay with RXF 393 renal, with EKVX NSCLC, in the assay on IGROV1 ovarian, in the assay on UACC-62 melanoma, with T-47D breast and in the assay with MDA-N was above 100 µM each time. The TGI in the assay with SK-OV-3 ovarian and in the assay on HOP-62 NSCLC was above 100 µM each time.
As to `OC1(c2ccccc2)CC2CCC(C1)N2CCCC(O)(c1ccccc1)c1ccccc1` (stereo not drawn), the TGI worked out at 10.2 µM in the assay on SK-MEL-5 melanoma; 24.3 µM in the assay with RXF 393 renal; 38.3 µM in the assay with EKVX NSCLC; 29.9 µM in the assay with IGROV1 ovarian; 28.5 µM with UACC-62 melanoma; 50.3 µM with T-47D breast. In addition, the TGI in the assay on SR leukemia is above 100 µM; with SK-OV-3 ovarian, 28.1 µM; in the assay with HOP-62 NSCLC it was 29 µM.
Take `CC(=O)O[C@@H]1[C@H](OC2CCCCC2(c2ccccc2)c2ccccc2)O[N+]([O-])=CC12CCCCC2` (stereo partly drawn): the TGI worked out at 28.2 µM in the assay on SK-MEL-5 melanoma; 32.6 µM in the assay on RXF 393 renal; 33.7 µM in the assay with EKVX NSCLC; 41.4 µM in the assay on IGROV1 ovarian; 32.6 µM in the assay with UACC-62 melanoma; 39.4 µM in the assay with T-47D breast. Also, the TGI with SR leukemia is above 100 µM; in the assay on MDA-N, 36.7 µM; in the assay with SK-OV-3 ovarian, 26.2 µM.
With `Clc1ccc(Nc2ncco2)cc1Cl`, the TGI in the assay with SK-MEL-5 melanoma, in the assay with EKVX NSCLC, with IGROV1 ovarian, in the assay with UACC-62 melanoma, in the assay with T-47D breast and in the assay with SR leukemia was above 10 µM in each case. Further, the TGI with MDA-N, in the assay on SK-OV-3 ovarian and in the assay on HOP-62 NSCLC was above 10 µM throughout.
As for `COc1cc(C2CC(C)(N3CCOCC3)Oc3cc4c(cc32)OCO4)cc(OC)c1OC` (stereo not drawn), the TGI was 1.54 µM in the assay with SK-MEL-5 melanoma; above 100 µM in the assay on EKVX NSCLC; above 35.9 µM with IGROV1 ovarian; above 100 µM with UACC-62 melanoma; above 100 µM with SR leukemia; 0.439 µM in the assay on MDA-N. For the same molecule, the TGI is above 80.5 µM with SK-OV-3 ovarian and above 100 µM in the assay on HOP-62 NSCLC.
Take `CC(=O)N1C(C(=O)NN2CCOCC2)CSC1c1ccccc1` (stereo not drawn): the TGI in the assay on SK-MEL-5 melanoma, with EKVX NSCLC, in the assay on IGROV1 ovarian, in the assay on UACC-62 melanoma, in the assay with T-47D breast and in the assay on SR leukemia was above 100 µM in each case. The TGI in the assay on MDA-N, in the assay with SK-OV-3 ovarian and in the assay on HOP-62 NSCLC was above 100 µM each time.
On to `NC(Cc1ccc(O)cn1)C(=O)NC(C(=O)O)c1ccccc1` (stereo not drawn), for which the TGI in the assay with SK-MEL-5 melanoma, in the assay on RXF 393 renal, in the assay on EKVX NSCLC, with IGROV1 ovarian, with SR leukemia and with MDA-N was above 100 µM each time. In the assay on HOP-62 NSCLC, this molecule displayed a TGI above 100 µM.
Turning to `Cc1cc(C)cc(Nc2nnc3n2S(=O)(=O)c2cc(C)c(Cl)cc2S3)c1`, the TGI in the assay with SK-MEL-5 melanoma is 24.7 µM; in the assay on RXF 393 renal it was 17.2 µM; in the assay with EKVX NSCLC it was 52.2 µM; with IGROV1 ovarian, 80.6 µM; with UACC-62 melanoma it was 34.9 µM; in the assay with T-47D breast it was above 100 µM. The TGI is 13.9 µM in the assay with SR leukemia, above 100 µM in the assay with SK-OV-3 ovarian and 41.6 µM with HOP-62 NSCLC.
As to `CN(C)CCCNC(=O)N/N=C/c1ccc(O)cc1`, the TGI in the assay on SK-MEL-5 melanoma, in the assay with IGROV1 ovarian, with UACC-62 melanoma, in the assay on T-47D breast, in the assay on SR leukemia and with MDA-N was above 100 µM in each case. The TGI in the assay on SK-OV-3 ovarian and in the assay with HOP-62 NSCLC was above 100 µM in each case.
Regarding `CC1=C(C(=O)NNC(=O)Cc2ccccc2)CC(C(=O)NNC(=O)Cc2ccccc2)=C(C)N1`, the TGI in the assay on SK-MEL-5 melanoma, with RXF 393 renal, with EKVX NSCLC, in the assay on IGROV1 ovarian, in the assay with UACC-62 melanoma and with T-47D breast was above 100 µM throughout. Besides, the TGI in the assay on MDA-N, in the assay with SK-OV-3 ovarian and in the assay with HOP-62 NSCLC was above 100 µM throughout.
Consider `CN(C)c1ccc(/C=C/C(=O)c2cc(C(C)(C)C)c(O)c(C(C)(C)C)c2)cc1`, for which the TGI was 16.5 µM in the assay on SK-MEL-5 melanoma; 0.511 µM in the assay with RXF 393 renal; above 100 µM in the assay on EKVX NSCLC; above 100 µM with IGROV1 ovarian; above 100 µM in the assay with UACC-62 melanoma; above 100 µM in the assay on T-47D breast. The TGI with MDA-N is 0.69 µM; with SK-OV-3 ovarian, above 100 µM; in the assay with HOP-62 NSCLC, above 100 µM.
Regarding `CC(NC(=O)Cc1ccc(OP(=O)(OCc2ccc([N+](=O)[O-])o2)N(C)CCCCCl)cc1)c1ccc(OCC2CCCCC2)c(C(N)=O)c1` (stereo not drawn), the TGI was determined as 2.97 µM with SK-MEL-5 melanoma; 4.74 µM in the assay on RXF 393 renal; 4.76 µM in the assay on IGROV1 ovarian; 3.28 µM in the assay with UACC-62 melanoma; 3.84 µM with T-47D breast; 4.38 µM with SR leukemia. For the same molecule, the TGI in the assay on MDA-N worked out at 3.94 µM; with SK-OV-3 ovarian, 11 µM; in the assay with HOP-62 NSCLC, 6.07 µM.
